This passage reports GI50 and TGI results from PubChem BioAssay (NCI).

Test systems include COLO 205 colon; HT29 colon; K-562 leukemia; NCI-H23 lung; RPMI-8226 leukemia; SNB-19 CNS; SNB-75 CNS; U251 CNS.
Assay in all cases: inhibition of tumour cell growth, NCI panel, 48 h

The structures appear in SMILES notation.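 All cell lines were grown in 96-well plates and treated with compound for 48 hours. Abbreviation: GI50, concentration required for 50% inhibition of growth. TGI: concentration producing complete growth inhibition.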

Take `O=C1/C(=C/c2ccccc2[N+](=O)[O-])COc2ccc(O)c(O)c21`: the GI50 in the test with COLO 205 colon is 0.71 µM; in the test with HT29 colon, 0.529 µM; in the test on K-562 leukemia it was 0.428 µM; in the test on NCI-H23 lung, 1.54 µM; in the test with RPMI-8226 leukemia, 0.421 µM; with SNB-19 CNS it was 2.45 µM. In addition, the GI50 in the test with SNB-75 CNS was 1.46 µM; in the test on U251 CNS, 0.922 µM. Moreover, the TGI with COLO 205 colon is 2.57 µM; with HT29 colon, 3.35 µM; in the test with K-562 leukemia, more than 100 µM; with NCI-H23 lung, 5.22 µM; with RPMI-8226 leukemia it was more than 41.3 µM; in the test with SNB-19 CNS it was 9.53 µM. The TGI in the test with SNB-75 CNS is 6.17 µM; with U251 CNS, 5.76 µM.

Regarding `CC(C)[C@H](C(=O)O[C@@H]1/C=C/C(=O)O[C@@H](C)CCC/C=C/[C@@H]2C[C@H](O)C[C@H]21)N(C)C`, the GI50 with COLO 205 colon is 3.49 µM; in the test with HT29 colon, 4.67 µM; with K-562 leukemia, 23.7 µM; in the test with NCI-H23 lung, 16.8 µM; in the test with RPMI-8226 leukemia, 8.12 µM; in the test with SNB-19 CNS, 30.2 µM. The GI50 in the test with SNB-75 CNS was 5.8 µM; in the test on U251 CNS it was 20.3 µM. Further, the TGI was 9.67 µM in the test with COLO 205 colon; more than 36 µM in the test with HT29 colon; 58.1 µM in the test with K-562 leukemia; more than 83.6 µM with NCI-H23 lung; 36.8 µM with RPMI-8226 leukemia; more than 100 µM in the test with SNB-19 CNS. For the same compound, the TGI is more than 43.2 µM with SNB-75 CNS and more than 100 µM with U251 CNS.

For `Cc1[nH]n(-c2cccc(Cl)c2)c(=O)c1/C=C1\C=c2ccccc2=CC1=O`, the GI50 in the test on COLO 205 colon is more than 100 µM; in the test with HT29 colon, more than 100 µM; with K-562 leukemia it was 44.7 µM; in the test with NCI-H23 lung, 48 µM; in the test with RPMI-8226 leukemia, more than 100 µM; with SNB-19 CNS, 45.7 µM. The results for the GI50 in the test on SNB-75 CNS and in the test with U251 CNS were 0.927 µM and 40.7 µM, respectively. The TGI with COLO 205 colon, in the test on HT29 colon, in the test with K-562 leukemia, in the test on NCI-H23 lung, in the test on RPMI-8226 leukemia and with SNB-19 CNS was more than 100 µM each time. The TGI in the test with SNB-75 CNS is 32.7 µM; in the test with U251 CNS, more than 100 µM.

For the compound `CC[C@@]1(O)C(=O)NCc2c1cc1n(c2=O)Cc2cc3c(NC(C)=O)cccc3nc2-1`, the GI50 in the test with COLO 205 colon was more than 100 µM; in the test on HT29 colon it was more than 100 µM; in the test with K-562 leukemia, more than 100 µM; with NCI-H23 lung it was more than 100 µM; in the test on RPMI-8226 leukemia it was more than 30.3 µM; in the test with SNB-19 CNS it was more than 100 µM. Besides, the GI50 in the test with SNB-75 CNS and with U251 CNS was more than 100 µM in each case. Also, the TGI with COLO 205 colon, in the test with HT29 colon, with K-562 leukemia, with NCI-H23 lung, in the test with RPMI-8226 leukemia and in the test on SNB-19 CNS was more than 100 µM throughout. The TGI with SNB-75 CNS and in the test with U251 CNS was more than 100 µM in each case.

As for `Fc1ccc(-c2nn3c(COc4ccc(Cl)cc4Cl)nnc3s2)cc1Oc1ccccc1`, the GI50 was 19.6 µM with COLO 205 colon; 15.9 µM in the test with HT29 colon; 21.2 µM in the test on K-562 leukemia; 13.6 µM with NCI-H23 lung; 18.3 µM in the test on RPMI-8226 leukemia; 13.3 µM in the test on SNB-19 CNS. Besides, the results for the GI50 with SNB-75 CNS and with U251 CNS were 32.2 µM and 12.9 µM, respectively. The TGI was more than 100 µM with COLO 205 colon; 34.8 µM with HT29 colon; more than 100 µM in the test with K-562 leukemia; 26.4 µM with NCI-H23 lung; 39.1 µM in the test on RPMI-8226 leukemia; 26.1 µM with SNB-19 CNS. Moreover, the values for the TGI in the test on SNB-75 CNS and in the test on U251 CNS were 91.1 µM and 25.6 µM, respectively.

Consider `CCCCCCSc1nc(COC(=O)NC)c(COC(=O)NC)n1C`, for which the TGI with COLO 205 colon, with HT29 colon, with K-562 leukemia, with NCI-H23 lung, in the test with RPMI-8226 leukemia and in the test on SNB-19 CNS was more than 100 µM throughout. Moreover, the TGI in the test on SNB-75 CNS and in the test on U251 CNS was more than 100 µM each time.

For `O=C1NC(=O)C(c2c[nH]c3ccccc23)=C1c1ccccc1`, the GI50 in the test with COLO 205 colon, in the test with HT29 colon, with K-562 leukemia, with NCI-H23 lung, in the test on RPMI-8226 leukemia and with SNB-19 CNS was more than 25 µM each time. The GI50 is 10.3 µM in the test with SNB-75 CNS and more than 25 µM in the test with U251 CNS. In addition, the TGI in the test on COLO 205 colon, in the test on HT29 colon, in the test on K-562 leukemia, with NCI-H23 lung, with RPMI-8226 leukemia and in the test on SNB-19 CNS was more than 25 µM throughout. In addition, the TGI in the test on SNB-75 CNS and with U251 CNS was more than 25 µM throughout.

`CCOC(=O)c1cc(-c2ccccc2)[nH]c1N/N=C/c1c(Cl)cccc1Cl`: the GI50 was 2.71 µM in the test on COLO 205 colon; 0.836 µM with HT29 colon; 0.491 µM with K-562 leukemia; 1.33 µM with NCI-H23 lung; 2.11 µM with RPMI-8226 leukemia; 3.06 µM in the test on SNB-19 CNS. Besides, the GI50 was 1.53 µM with SNB-75 CNS and 1.25 µM in the test on U251 CNS. For the same compound, the TGI with COLO 205 colon was 15.3 µM; with HT29 colon, 16.3 µM; in the test on K-562 leukemia it was 13.7 µM; in the test with NCI-H23 lung it was 40.4 µM; with RPMI-8226 leukemia it was 11.3 µM; in the test on SNB-19 CNS, more than 60.4 µM. The TGI in the test on SNB-75 CNS is more than 39.6 µM; in the test with U251 CNS, more than 60.4 µM.

Regarding `COc1cc(NC(=O)c2ccccc2Nc2ccnc(C(F)(F)F)c2)cc(OC)c1OC`, the GI50 was 41.9 µM in the test with COLO 205 colon; 65 µM in the test with HT29 colon; 52.8 µM with K-562 leukemia; 44 µM in the test with NCI-H23 lung; 36.3 µM in the test on RPMI-8226 leukemia; 77.1 µM in the test on SNB-19 CNS. For the same compound, the GI50 in the test with SNB-75 CNS is 34.8 µM; in the test on U251 CNS, 82.7 µM. The TGI with COLO 205 colon, in the test on HT29 colon, in the test on K-562 leukemia, in the test on NCI-H23 lung, with RPMI-8226 leukemia and in the test on SNB-19 CNS was more than 100 µM throughout. In addition, the TGI with SNB-75 CNS and with U251 CNS was more than 100 µM each time.
